Reference: US20260242320A1, “USE OF CANNABIDIOL DERIVATIVE IN PREPARATION OF MEDICAMENT” (priority 2023, published 2026)

How the values were obtained:
[1] = system: BV-2 cells; experiment: Cellular ATP assay; type: cell-based; settings: 10 μM, 2 h
Description: BV-2 cells were seeded at a density of 5×10^5 cells per well in 6-well plates and incubated for 24 h. BV-2 cells were treated with 10 μM CIAC001 or 10 μM Compound 19b for 2 h. Cellular ATP was measured by an enhanced ATP assay kit (S0027-4, Beyotime Biotechnology Co., Ltd., Shanghai, China).

[2] = system: lactate dehydrogenase A (LDHA) mRNA; experiment: LDHA mRNA in LPS-treated BV-2 cells; type: cell-based; settings: 3 hours
Description: (§1) Total RNA was extracted from cells or mouse brains using the RNeasy Mini Kit. Isolated RNA was reverse-transcribed into cDNA using an RT2 Easy First Strand cDNA Synthesis Kit following the manufacturer's protocols. PCR amplification was conducted using synthetic primers, SYBR Green, and a TOptical Real-Time qPCR Thermal Cycler (Analytik Jena, Thuringia, Germany). The data were analyzed by the […] method, and Rpl711 or Rpl27 was used as an internal control.

[3] = system: LPS-activated BV-2 cells; experiment: Cell morphology determination; type: cell-based; settings: 10 μM, LPS 200 ng/ml, 24 h
Description: BV-2 cells were seeded at a density of 2.5×10^5 cells per milliliter in 6-well plates and incubated for 12 h. Cells were incubated with CIAC001 (10 μM) in the absence or presence of LPS (200 ng/ml) for 24 h. The images of BV-2 cells were taken with an inverted microscope (Ts2-FL, Nikon Corporation, Tokyo, Japan) and analyzed by ImageJ. Statistic data are counted in at least three hundred cells.

[4] = biological target: T1, endogenous PKM2 in BV-2 cell lysate (Mus musculus, UniProt P52480); experiment: Cellular thermal shift assay (CETSA); type: binding
T1 construct: endogenous in cells; host or cells: BV-2 cells
T1 sequence (P52480 whole entry): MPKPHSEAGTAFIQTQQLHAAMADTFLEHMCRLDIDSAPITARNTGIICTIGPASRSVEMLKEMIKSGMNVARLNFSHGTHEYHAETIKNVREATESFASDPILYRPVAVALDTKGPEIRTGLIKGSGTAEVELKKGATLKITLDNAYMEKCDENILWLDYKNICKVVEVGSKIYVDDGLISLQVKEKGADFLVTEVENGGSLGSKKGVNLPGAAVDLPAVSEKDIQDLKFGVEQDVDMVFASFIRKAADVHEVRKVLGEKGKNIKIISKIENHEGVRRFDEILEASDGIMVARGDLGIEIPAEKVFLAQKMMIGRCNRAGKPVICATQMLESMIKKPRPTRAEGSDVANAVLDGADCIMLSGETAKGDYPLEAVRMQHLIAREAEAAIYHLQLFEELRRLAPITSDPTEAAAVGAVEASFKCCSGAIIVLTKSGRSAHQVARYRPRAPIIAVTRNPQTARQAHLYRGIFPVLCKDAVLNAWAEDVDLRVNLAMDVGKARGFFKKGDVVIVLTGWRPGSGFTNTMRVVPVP
Description: For CETSA experiments, BV-2 cells were seeded at a density of 4×10^5 cells/mL in 10 cm petri dishes. After 24 h, the medium was removed, and cells were washed with cold PBS (3.0 mL) 3 times and harvested by scraping. Cells were then isolated by centrifugation (1000 g, 5 min, 4° C.) and resuspended in cell lysis buffer (P0013, Beyotime Biotechnology) with the 1% protease inhibitor cocktail and then incubated on ice for 10 min. The lysates were centrifuged (12,000 g, 15 min, 4° C.), and the supernatants were collected. CIAC001 (50 μM) or vehicle control was incubated with BV-2 cell lysate supernatant for 2 h at 20° C. The lysate supernatants were divided into 60 μL each in microtubes. The lysates were heated at different temperatures (37-72° C.) for 5 min on a Long Gene A200 thermal cycler and cooled down at 25° C. for another 3 min. The samples were stored on ice until centrifugation (20,000 g, 4° C., 20 min) to remove precipitates. The lysate supernatants were denatured in 2× Laemmli sample buffer at 100° C. for 8 min for western blotting with the PKM2 antibody

[5] = Respiratory rate determination; type: in vivo, mice; settings: CIAC001 20 mg/kg i.p.; THC 10 mg/kg i.p.
Description: Mice were intraperitoneally injected with 20 mg/kg CIAC001 or 10 mg/kg THC once daily. After 1 h, the mice were anesthetized with isoflurane by a small animal anesthesia machine (R500IE, RWD Life Science Co) on day 2 and day 5. The respiratory rate of mice was recorded three times within 20 s. The weights of mice were recorded every day.

[6] = system: hippocampus of transgene mice; experiment: Potential of hippocampus (LTP) measurement; type: in vivo
Description: Mouse brains were quickly removed following anesthetization using isoflurane and euthanasia by cervical dislocation and immersed in pre-chilled artificial cerebrospinal fluid (ACSF) for 3 minutes while continuously supplying O2 to the fluid to maintain brain activity. Then, the brain was then quickly fixed with glue onto a platform of a vibratome (with the olfactory bulb facing up and the hindbrain facing down) and placed in well-oxygenated, pre-chilled ACSF. The brain was then sliced at 300 μm per slice with a cutting speed of 0.14 mm/s, starting from the appearance of the hippocampus. The collected brain slices were divided into left and right hemispheres and incubated in an O2-filled water bath at 32° C. for 2 hours. Afterwards, computer software used for recording was adjusted to ensure a stable baseline. The incubated brain slices were placed in the center of an electrode, with the brightest line of the CA1 region in the hippocampus spanning diagonally across the baseline, and fixed with a grid and iron block inside the recording device. Each potential in the electrode was stimulated to find the optimal stimulation point. High-frequency stimulation was then performed at the optimal point. Software was then used to record the changes in electrical potential at each electrode point.

[7] = system: IL-1β in mPFC, NAc and VTA; experiment: IL-1β expression in brain regions after chronic morphine; type: in vivo; settings: mice
Description: as §1
Conditional place conditioning (CPP) was conducted using the classic 10-consecutive-day procedure. On days 1 and 2, each mouse was separately placed into the CPP apparatus for 15 min to habituate the apparatus. On day 3 (preconditioning), the time spent in each compartment was recorded to determine any preference for the two compartments. Mice were divided into three groups: vehicle group, 7.5 mg/kg morphine, as well as 7.5 mg/kg morphine+0.2 mg/kg CIAC001. During the conditioning phase, mice were separately isolated in the compartment for 30 min on 6 consecutive days. Mice were given morphine on days 4, 6, and 8, and vehicle (5 mL/kg) was administered on days 5, 7, and 9. […] Each mouse was placed in the apparatus and explored freely, and the time spent in each compartment was recorded for 15 min. The CPP score(s) was calculated using the time spent in the drug-paired compartment minus the time spent in the vehicle-paired compartment.

[8] = system: Tau, TrkB, Syn1, Aβ; experiment: Western blot of Alzheimer's disease markers in mouse hippocampus; type: in vivo; settings: transgene mice, 0, 0.2, 2, or 20 mg/kg
Description: The protein samples from the mouse hippocampus were analyzed for Tau5, p-Tau (T231), p-Tau (S202), p-Tau (S404), p-TrkB (Y705), Syn1, Aβ1-42, and Aβ1-16 protein content using Western blot technique.

[9] = biological target: PKM2 (Mus musculus, UniProt P52480); experiment: Pull-down with probes 19e/19f and western blotting
PKM2, sequence (P52480 whole entry): as above
Description: The protein samples were separated by SDS-PAGE and transferred to PVDF membranes. The membranes were blocked with 5% nonfat dry milk for 1 h. The membranes were incubated with the corresponding primary antibody at 4° C. overnight and then washed with Tris-buffered saline with 0.1% Tween 20 (TBST) for 5 min each time and incubated for 1 h at room temperature with the secondary antibody-HRP conjugate. After washing with TBST, the membranes were developed using Super-Signal West Pico Chemiluminescent Substrate and visualized by a Tanon-5200 Multi. ImageJ was used for densitometric analysis.
BV-2 cells were treated with the probe Compound 19e (5 μM) or CIAC001 (20 μM) for 2 h at 37° C.; then, cells were transferred on ice and irradiated with 365 nm UV light for 30 min. Cells were washed with 3 mL PBS twice and lysed by buffer containing 250 mM HEPES (pH=7.9), 1.5 M KCl, 5 mM EDTA, 0.5% v/v NP-40, and 1% v/v protease inhibitor cocktail. The cell lysate was centrifuged at 4° C. and 12,000 g for 10 min, and the protein concentration was adjusted to 1 mg/mL by the BCA assay kit. […]
BV-2 cells were scraped with PBS; then, cells were lysed with buffer containing 250 mM HEPES (pH=7.9), 1.5 M KCl, 5 mM EDTA, 0.5% v/v NP-40, and 0.025% v/v protease inhibitor cocktail and incubated on ice for 30 min. […] The lysate was subjected to a click reaction as described above and analyzed by SDS-PAGE. […]

C=C(C)[C@@H]1CCC(C)=C[C@H]1c1c(O)cc(C(C)n2nccn2)cc1O (stereo partly drawn) [CIAC001, (1′R,2′R)-4-(1-(2H-1,2,3-Triazol-2-yl)ethyl)-5′-methyl-2′-(prop-1-en-2-yl)-1′,2′,3′,4′-tetrahydro-[1,1′-biphenyl]-2,6-diol]
ATP level [1]: increase the ATP level | LPS-induced LDHA mRNA overexpression [2]: significantly inhibited | LPS-induced morphological changes of microglia [3]: considerably reversed | ΔTm at 50 µM [4]: 3.9 ± 1.3 °C | respiratory rate [5]: did not affect the respiratory rate | increase of hippocampal potential [6]: ~500% | morphine-induced IL-1β overexpression in mPFC, NAc and VTA [7]: inhibited | Syn1 and Aβ levels [8]: reduces Syn1 and Aβ levels | Tau and TrkB phosphorylation [8]: inhibits Tau and TrkB phosphorylation | binding of Compound 19e to PKM2 in presence of free CIAC001 ([9]; high concentrations of free CIAC001): competitively inhibited | binding with PKM (PKM2 vs PKM1) in situ and in vitro ([9]; pull-down, western blot, BV-2): directly binds with PKM2 rather than PKM1
